# Measured values from article PMC12207590, “Substrate Specificity of the Organic Cation Transporters MATE1 and MATE2K and Functional Overlap with OCT1 and OCT2” (Journal of Medicinal Chemistry, 2025).
# Read-outs that look alike come from different tables or passages of the source.
# Legend:
# [1] = molecular target: MATE2K (Homo sapiens, UniProt Q86VL8); test: Uptake ratio in MATE2K-overexpressing HEK293 cells vs empty vector (2.5 μM, 1 min, HPLC-MS/MS); format: cell-based; conditions: for MATE2K ratio in this study: Table S1
# MATE2K, sequence (Q86VL8 1-566 isoform Q86VL8-3): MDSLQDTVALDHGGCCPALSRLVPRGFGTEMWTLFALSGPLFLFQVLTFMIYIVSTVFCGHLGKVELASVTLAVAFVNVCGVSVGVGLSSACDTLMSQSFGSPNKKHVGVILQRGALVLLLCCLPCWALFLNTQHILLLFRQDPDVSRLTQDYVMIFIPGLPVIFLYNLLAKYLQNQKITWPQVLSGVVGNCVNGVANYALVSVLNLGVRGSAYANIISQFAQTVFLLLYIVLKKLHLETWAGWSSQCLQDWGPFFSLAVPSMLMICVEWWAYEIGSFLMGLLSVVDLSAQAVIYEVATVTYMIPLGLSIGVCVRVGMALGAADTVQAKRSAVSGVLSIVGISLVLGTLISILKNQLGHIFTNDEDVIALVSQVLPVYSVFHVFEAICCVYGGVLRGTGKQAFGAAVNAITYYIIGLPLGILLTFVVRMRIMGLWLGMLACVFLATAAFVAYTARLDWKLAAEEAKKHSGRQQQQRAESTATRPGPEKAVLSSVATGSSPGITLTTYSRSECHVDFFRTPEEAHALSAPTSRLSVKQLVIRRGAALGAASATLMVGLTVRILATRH
# [2] = molecular target: T1, MATE1 (Homo sapiens, UniProt Q96FL8); test: Uptake ratio in MATE1-overexpressing HEK293 cells vs empty vector (2.5 μM, 1 min, HPLC-MS/MS); format: cell-based; conditions: for MATE1 ratio in this study: Table S1
# T1 sequence (Q96FL8 1-570): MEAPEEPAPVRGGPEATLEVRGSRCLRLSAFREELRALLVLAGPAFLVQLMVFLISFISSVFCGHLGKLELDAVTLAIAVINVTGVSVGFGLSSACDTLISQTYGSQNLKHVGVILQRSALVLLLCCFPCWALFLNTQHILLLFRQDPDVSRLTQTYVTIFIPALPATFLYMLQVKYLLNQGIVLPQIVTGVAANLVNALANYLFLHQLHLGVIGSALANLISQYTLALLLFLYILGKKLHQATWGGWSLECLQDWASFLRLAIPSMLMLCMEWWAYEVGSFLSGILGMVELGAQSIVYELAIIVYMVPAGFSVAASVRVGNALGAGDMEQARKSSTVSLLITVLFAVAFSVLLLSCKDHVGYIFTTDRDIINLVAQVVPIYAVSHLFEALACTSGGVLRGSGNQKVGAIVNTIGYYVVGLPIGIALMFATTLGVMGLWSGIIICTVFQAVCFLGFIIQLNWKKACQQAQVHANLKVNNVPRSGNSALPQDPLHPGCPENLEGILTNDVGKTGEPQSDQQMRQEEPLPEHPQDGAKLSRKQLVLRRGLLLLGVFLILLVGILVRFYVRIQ
# [3] = fold uptake over empty vector, 2.5 μM, 1 min
# [4] = mean ratio of uptake in MATE2K-overexpressing HEK293 cells vs empty vector, 2.5 μM, 1 min
# [5] = mean ratio of uptake in MATE1-overexpressing HEK293 cells vs empty vector, 2.5 μM, 1 min
SMILES,"MATE2K ratio [1, 3]","MATE2 (uptake ratio) [1, 4]","MATE1 ratio [2, 3]","MATE1 (uptake ratio) [2, 5]",also measured
O=C(O[C@H]1C[N+]2(CCCOc3ccccc3)CCC1CC2)C(O)(c1cccs1)c1cccs1 [Aclidinium],1.17,1.17,4.73,4.73,–
CCN1C[C@]2(COC)[C@H](O)C[C@H](OC)[C@@]34[C@@H]5C[C@@]6(O)[C@H](OC(=O)c7ccccc7)[C@@H]5[C@@](OC(C)=O)([C@@H]([C@H](OC)[C@H]23)[C@@H]14)[C@@H](O)[C@@H]6OC [Aconitine],–,–,–,–,MATE2 (uptake ratio) [1]: 1.32; MATE2K ratio [1]: 1.32; MATE1 (uptake ratio) [2]: 1.13; MATE1 ratio [2]: 1.13
NCCCCN=C(N)N [Agmatine],1.05,1.05,1.08,1.08,"MATE2K ratio in this study ([1]; 2.5 μM, 1 min): 1.05; MATE1 ratio in this study ([2]; 2.5 μM, 1 min): 1.08"
Oc1ncnc2[nH]ncc12 [Allopurinol],0.85,0.85,1.08,1.08,–
CN(C)CCc1c[nH]c2ccc(CS(=O)(=O)N3CCCC3)cc12 [Almotriptan],2.36,2.36,4.40,4.4,–
"CC(N)[C@H](O)c1ccc(O)c(O)c1 (stereo partly drawn) [Alpha-methylnorepinephrine (-), Alpha-methylnorepinephrine]",–,–,–,–,MATE2 (uptake ratio) [1]: 0.72; MATE2K ratio [1]: 0.72; MATE1 (uptake ratio) [2]: 1.85; MATE1 ratio [2]: 1.85
NC12CC3CC(CC(C3)C1)C2 [Amantadine],–,–,–,–,MATE2 (uptake ratio) [1]: 1.48; MATE2K ratio [1]: 1.48; MATE1 (uptake ratio) [2]: 1.42; MATE1 ratio [2]: 1.42
Nc1c(Br)cc(Br)cc1CN[C@H]1CC[C@H](O)CC1 [Ambroxol],1.32,1.32,1.00,1,–
"CCN1CCCC1CNC(=O)c1cc(S(=O)(=O)CC)c(N)cc1OC [Amisulpride (R), Amisulpride]",7.40,7.4,8.46,8.46,–
"CCN1CCCC1CNC(=O)c1cc(S(=O)(=O)CC)c(N)cc1OC [Amisulpride (S), Amisulpride]",7.93,7.93,13.70,13.7,–
Clc1ccc2c(c1)C(N1CCNCC1)=Nc1ccccc1O2 [Amoxapine],1.33,1.33,1.32,1.32,–
CC1(C)S[C@@H]2[C@H](NC(=O)[C@H](N)c3ccc(O)cc3)C(=O)N2[C@H]1C(=O)O [Amoxicillin],0.67,0.67,1.82,1.82,–
COc1ccc(-n2nc(C(N)=O)c3c2C(=O)N(c2ccc(N4CCCCC4=O)cc2)CC3)cc1 [Apixaban],1.15,1.15,1.24,1.24,–
CN1CCc2cccc3c2[C@H]1Cc1ccc(O)c(O)c1-3 [Apomorphine],1.02,1.02,1.05,1.05,–
"N=C(N)NCCCCNC(=N)N [Arcaine, 1,4-diguanidinobutane]",16.29,16.29,40.20,40.2,"MATE1 ratio ([2]; fold uptake over empty vector, 2.5 μM, 1 min, listed as arcaine): 40"
"CNCC[C@@H](Oc1ccccc1C)c1ccccc1 [Atomoxetine (S), Atomoxetine]",1.03,1.03,1.16,1.16,–

SMILES,"MATE2K ratio [1, 3]","MATE2 (uptake ratio) [1, 4]","MATE1 ratio [2, 3]","MATE1 (uptake ratio) [2, 5]",also measured
COc1ccc(CC2c3cc(OC)c(OC)cc3CC[N+]2(C)CCC(=O)OCCCCCOC(=O)CC[N+]2(C)CCc3cc(OC)c(OC)cc3C2Cc2ccc(OC)c(OC)c2)cc1OC (stereo not shown) [Atracurium],1.10,1.1,1.13,1.13,–
NCC(CC(=O)O)c1ccc(Cl)cc1 (stereo not shown) [Baclofen],1.05,1.05,1.45,1.45,–
CN(C)C(=O)Oc1cc(OC(=O)N(C)C)cc(C(O)CNC(C)(C)C)c1 (stereo not shown) [Bambuterol],1.21,1.21,1.52,1.52,–
CCS(=O)(=O)N1CC(CC#N)(n2cc(-c3ncnc4[nH]ccc34)cn2)C1 [Baricitinib],1.04,1.04,0.82,0.82,"MATE2K ratio in this study ([1]; 2.5 μM, 1 min): 1.04; MATE1 ratio in this study ([2]; 2.5 μM, 1 min): 0.82"
CC(=O)c1cc2cccc(OCC(O)CNC(C)C)c2o1 (stereo not shown) [Befunolol],1.38,1.38,1.39,1.39,–
CC[N+](CC)(CC)Cc1ccccc1 [Benzyltriethylammonium],4.52,4.52,25.63,25.63,–
CC(C)NCC(O)COc1ccc(CCOCC2CC2)cc1 (stereo not shown) [Betaxolol],1.43,1.43,1.37,1.37,–
CC(C[N+](C)(C)C)OC(N)=O (stereo not shown) [Bethanechol],0.97,0.97,0.23,0.23,–
Cc1ccc(C23CNCC2C3)cc1 (stereo not shown) [Bicifadine],1.31,1.31,1.17,1.17,–
Cc1ccc(C(=O)Oc2ccc(C(O)CNC(C)(C)C)cc2OC(=O)c2ccc(C)cc2)cc1 (stereo not shown) [Bitolterol],0.57,0.57,0.38,0.38,–
CC(C)C[C@H](NC(=O)[C@H](Cc1ccccc1)NC(=O)c1cnccn1)B(O)O [Bortezomib],1.10,1.1,1.20,1.2,–
COc1cc2c(cc1OC)[C@@]13CCN4CC5=CCO[C@H]6CC(=O)N2[C@H]1[C@H]6[C@H]5C[C@H]43 [Brucine],–,–,–,–,MATE2 (uptake ratio) [1]: 1.3; MATE2K ratio [1]: 1.30; MATE1 (uptake ratio) [2]: 1.13; MATE1 ratio [2]: 1.13
CCCCNC(=N)NC(=N)N [Buformin],–,–,–,–,MATE2 (uptake ratio) [1]: 2.37; MATE2K ratio [1]: 2.37; MATE1 (uptake ratio) [2]: 24.8; MATE1 ratio [2]: 24.80
CCCCNc1cc(C(=O)O)cc(S(N)(=O)=O)c1Oc1ccccc1 [Bumetanide],1.18,1.18,2.02,2.02,substrate of MATE1 ([2]; organic anions tested): substrates of MATE1
CC(C)(C)NCC(O)COc1ccccc1C#N (stereo not shown) [Bunitrolol],1.31,1.31,1.17,1.17,–
